Data published in ChEMBL document CHEMBL1201862, “PubChem BioAssay data set” (2004).
Activity calls are given as the source filed them.

Tests used:
[1] = growth suppression of beta-catenin-knockout colon cells, dose response, cell-based, HCT116, human colon tumor (AID 1045); format: functional;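 further: HCT116 colon tumor cells with beta catenin knocked out; cells exposed to compound for 60 hours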
[2] = growth suppression of PTEN-null colon cells, dose response, cell-based, HCT116 PTEN knockout (AID 1047); format: functional;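 further: HCT116 colon tumor cells with PTEN knocked out; cells exposed to compound for 60 hours before readout; potency for loss of cell viability measured by luminescence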
[3] = biological target: T1, Short transient receptor potential channel 4 (Mus musculus, UniProt Q9QUQ5); experiment: mouse TRPC4 channel inhibitors, dose response, cell-based, HEK293 TRPC4/mu-opioid, Fluo-4 calcium (AID 434942); format: functional;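 further: potency of inhibitors blocking the TRPC4 calcium response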
T1 sequence (Q9QUQ5 whole entry): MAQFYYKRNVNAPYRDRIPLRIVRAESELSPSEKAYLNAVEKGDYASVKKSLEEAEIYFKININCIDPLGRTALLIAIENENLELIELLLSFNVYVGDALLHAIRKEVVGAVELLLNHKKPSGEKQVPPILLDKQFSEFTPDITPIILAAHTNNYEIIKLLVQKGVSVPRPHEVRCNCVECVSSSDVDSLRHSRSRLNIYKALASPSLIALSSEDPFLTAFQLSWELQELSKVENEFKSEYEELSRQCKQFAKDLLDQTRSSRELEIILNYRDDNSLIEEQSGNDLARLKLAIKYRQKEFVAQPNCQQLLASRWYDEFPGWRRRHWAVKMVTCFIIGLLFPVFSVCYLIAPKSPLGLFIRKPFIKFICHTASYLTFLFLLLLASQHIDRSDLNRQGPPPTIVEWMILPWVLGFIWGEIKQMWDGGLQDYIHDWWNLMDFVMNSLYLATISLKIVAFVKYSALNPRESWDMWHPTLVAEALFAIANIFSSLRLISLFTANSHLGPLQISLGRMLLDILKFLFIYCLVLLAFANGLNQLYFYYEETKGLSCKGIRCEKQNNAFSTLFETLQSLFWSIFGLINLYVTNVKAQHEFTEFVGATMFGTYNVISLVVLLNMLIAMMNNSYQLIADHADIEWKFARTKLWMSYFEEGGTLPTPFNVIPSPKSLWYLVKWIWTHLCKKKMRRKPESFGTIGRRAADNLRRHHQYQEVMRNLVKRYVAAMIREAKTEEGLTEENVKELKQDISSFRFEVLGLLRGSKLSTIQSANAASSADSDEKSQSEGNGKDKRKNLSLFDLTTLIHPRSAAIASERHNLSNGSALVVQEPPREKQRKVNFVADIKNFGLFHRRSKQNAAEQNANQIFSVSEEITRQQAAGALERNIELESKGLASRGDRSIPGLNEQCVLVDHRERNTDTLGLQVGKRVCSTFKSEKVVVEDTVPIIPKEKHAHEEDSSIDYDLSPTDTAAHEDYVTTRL

Nonstructural protein 1 = Nonstructural protein 1 (Influenza A virus, UniProt Q194T2); format: functional, Influenza A virus (A/California/07/2009(H1N1))
[4] = biological target: T2, Heat shock factor protein 1 (Mus musculus, UniProt P38532); experiment: HSF1 potentiators in luciferase reporter cells, confirmation, cell-based, NIH3T3, luminescence, dose retest (AID 435004); format: functional;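 further: stress induced by proteasome inhibitor MG132 added 30 min after compound; luciferase reporter driven by HSF1 response element in NIH3T3 cells; actives raise luminescence as potentiators of the MG132 stress response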
T2 sequence (P38532 whole entry): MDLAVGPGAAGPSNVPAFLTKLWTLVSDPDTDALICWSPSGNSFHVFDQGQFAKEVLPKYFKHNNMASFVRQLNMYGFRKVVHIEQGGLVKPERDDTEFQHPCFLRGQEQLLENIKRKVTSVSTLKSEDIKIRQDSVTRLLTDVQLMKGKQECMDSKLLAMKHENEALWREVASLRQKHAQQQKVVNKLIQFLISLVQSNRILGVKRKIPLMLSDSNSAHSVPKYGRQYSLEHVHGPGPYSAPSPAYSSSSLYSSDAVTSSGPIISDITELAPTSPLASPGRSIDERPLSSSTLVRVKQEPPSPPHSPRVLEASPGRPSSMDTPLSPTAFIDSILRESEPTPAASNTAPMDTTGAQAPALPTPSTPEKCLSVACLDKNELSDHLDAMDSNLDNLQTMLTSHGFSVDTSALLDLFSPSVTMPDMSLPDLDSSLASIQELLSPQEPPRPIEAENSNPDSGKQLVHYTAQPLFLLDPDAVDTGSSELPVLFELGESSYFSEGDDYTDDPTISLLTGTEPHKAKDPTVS

Protein skinhead-1 = biological target: T3, Protein skinhead-1 (Caenorhabditis elegans, UniProt P34707); format: functional
T3 sequence (P34707 whole entry): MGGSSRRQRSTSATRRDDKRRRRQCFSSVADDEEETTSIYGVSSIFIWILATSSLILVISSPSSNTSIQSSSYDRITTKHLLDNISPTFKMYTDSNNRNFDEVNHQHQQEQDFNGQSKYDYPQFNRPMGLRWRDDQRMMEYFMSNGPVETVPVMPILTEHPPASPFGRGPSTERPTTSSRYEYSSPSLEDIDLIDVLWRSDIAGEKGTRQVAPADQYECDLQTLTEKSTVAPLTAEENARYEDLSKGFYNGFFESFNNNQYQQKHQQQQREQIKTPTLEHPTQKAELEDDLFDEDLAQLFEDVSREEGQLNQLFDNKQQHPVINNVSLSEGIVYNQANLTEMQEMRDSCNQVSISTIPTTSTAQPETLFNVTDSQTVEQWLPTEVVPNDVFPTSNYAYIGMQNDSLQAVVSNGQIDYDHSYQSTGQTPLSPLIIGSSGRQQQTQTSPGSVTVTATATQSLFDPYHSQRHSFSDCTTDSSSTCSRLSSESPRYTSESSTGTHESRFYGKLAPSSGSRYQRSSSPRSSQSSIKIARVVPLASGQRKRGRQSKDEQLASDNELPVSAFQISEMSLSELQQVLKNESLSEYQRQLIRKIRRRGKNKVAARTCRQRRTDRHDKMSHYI

[5] = biological target: T1, Short transient receptor potential channel 4; experiment: mouse TRPC4 channel activators, dose response, cell-based, HEK293 TRPC4/mu-opioid, Fluo-4 calcium (AID 434937); format: functional
INS1 = experiment: beta cell apoptosis inhibitors, cytokine rescue, dose response, luminescence, retest (AID 449756); format: functional, cell-based; settings: Rattus norvegicus;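 further: cell death triggered by IL-1 beta plus TNF-alpha plus IFN-gamma mixture; protective hits raise ATP signal compared with cytokine alone wells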
Streptococcus = experiment: Group A Streptococcus viability loss, dose response, counter-screen for streptokinase expression inhibitor project, luminescence, BacTiterGlo (AID 1915); format: functional, organism-based;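 further: potency for reduction of bacterial viability or growth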
[6] = cytotoxicity toward DRD oncogenic fibroblasts, dose response, cell-based, non-viral oncogenic, luminescence (AID 1934); format: functional; settings: Homo sapiens
[7] = inhibitors of SNCA 5'UTR-driven reporter translation, confirmation, H4 neuroglioma cells, luminescence (AID 1988); format: functional, cell-based
BJ [8] = experiment: cytotoxicity toward BJ-TERT fibroblasts, dose response, cell-based, RAS-independent, luminescence (AID 1933); format: functional; settings: Homo sapiens
[9] = test system: Streptococcus sp. 'group A'; experiment: growth inhibition of control SK(-) GAS strain, dose response, counter-screen for streptokinase expression inhibitor project, luminescence, kanamycin, BacTiterGlo, confirmation (AID 1900); format: functional, organism-based
[10] = inhibitors of firefly luciferase expression or activity, dose response, H4 neuroglioma cells, luminescence (AID 1990); format: functional, cell-based
[11] = Luminescence Cell-Based Dose Response HTS to Identify Inhibitors of 5'UTR Stem-Loop Driven Prion Protein mRNA Translation in H4 Neuroglioblastoma Cells. [Related pubchem assays: 1827 (Project Summary), 1813 (Primary HTS)]; format: functional
BJ [12] = experiment: cytotoxicity toward BJ-TERT-LT-ST fibroblasts, dose response, cell-based, RAS-independent, luminescence (AID 1935); format: functional; settings: Homo sapiens;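 further: BJ fibroblasts immortalized with TERT plus LT and ST oncogenes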
BJ [13] = experiment: cells; format: functional, cell-based; settings: Homo sapiens
[14] = microbe, parasite or virus in culture; format: functional; settings: Mycobacterium tuberculosis
Streptokinase A = biological target: T4, Streptokinase A (Streptococcus pyogenes serotype M1, UniProt P10520); experiment: S. pyogenes streptokinase expression inhibitors, potency, dose response, plasminogen activation absorbance, OD405 (AID 1914); format: functional, Streptococcus pyogenes M1 GAS;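 further: secreted streptokinase activity via plasminogen activation per viability signal from cell pellet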
T4 sequence (P10520 whole entry): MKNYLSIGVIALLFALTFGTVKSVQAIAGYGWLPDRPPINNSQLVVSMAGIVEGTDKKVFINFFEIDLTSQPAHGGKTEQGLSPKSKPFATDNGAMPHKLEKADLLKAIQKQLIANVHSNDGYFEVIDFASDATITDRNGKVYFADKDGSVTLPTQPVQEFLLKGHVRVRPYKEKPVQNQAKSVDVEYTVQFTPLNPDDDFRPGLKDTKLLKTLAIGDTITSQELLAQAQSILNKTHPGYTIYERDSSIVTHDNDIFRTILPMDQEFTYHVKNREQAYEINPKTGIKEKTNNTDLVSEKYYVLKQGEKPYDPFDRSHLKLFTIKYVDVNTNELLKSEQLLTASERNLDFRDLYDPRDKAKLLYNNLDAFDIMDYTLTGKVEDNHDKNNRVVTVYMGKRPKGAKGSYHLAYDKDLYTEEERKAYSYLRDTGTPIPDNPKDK

Chain of Nonstructural protein 1 (Q194T2 whole entry): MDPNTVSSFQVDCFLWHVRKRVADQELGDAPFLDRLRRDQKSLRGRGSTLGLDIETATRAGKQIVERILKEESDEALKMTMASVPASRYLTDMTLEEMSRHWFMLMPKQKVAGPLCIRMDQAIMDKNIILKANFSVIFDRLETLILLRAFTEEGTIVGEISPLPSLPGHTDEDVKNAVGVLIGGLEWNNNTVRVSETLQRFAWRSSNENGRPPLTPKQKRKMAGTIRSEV

**Q.** For `COc1cc(C2C(C#N)=C(C)N=C3C2=C(O)c2ccccc23)cc(OC)c1OC` (stereo unspecified), which EC50 [1] is on record?
**A.** 21.5 µM (active)

**Q.** And the EC50 [2]?
**A.** 16.1 µM (active)

**Q.** With `OCC1(Cc2ccccc2)CCCN(Cc2cnn(-c3ccccc3)c2)C1` (stereo unspecified) as the molecule, how does the EC50 [3] read?
**A.** 4.22 µM (active)

**Q.** For `Cc1nnc2sc(SCC(=O)Nc3cccc(Cl)c3)nn2c1=O`, which IC50 (Nonstructural protein 1) is on record?
**A.** 10.4 µM (active)

**Q.** What does the source list for `Fc1ccc(-c2nnc3ccc(N4CCc5ccccc5C4)nn23)cc1`?
**A.** EC50 [1]: 54 µM (active); EC50 [2]: 40.1 µM (active); EC50 [4]: > 260 µM (inactive)

**Q.** For `c1ccc(-c2ccc(-c3nc(-c4cccnc4)no3)cc2)cc1`, which IC50 (Protein skinhead-1) is on record?
**A.** > 100 µM (inactive)

**Q.** With `Cn1c(-c2ccccc2)cnc1NCc1ccc(F)cc1` as the molecule, how does the EC50 [3] read?
**A.** 1.88 µM (active)

**Q.** For `Nc1ccc(C=C2C=Cc3ccccc32)cc1`, which IC50 (Protein skinhead-1) is on record?
**A.** 21.3 µM (active)

**Q.** For `CCCCN(C)CCCNC(=O)CN1N=C(c2ccc(Cl)cc2)CCC1=O`, which EC50 [5] is on record?
**A.** 0.596 µM (active)

**Q.** Which IC50 (Protein skinhead-1) does the source give for `Brc1cccc(-c2nc3ccc(Br)cn3c2Cc2ccsc2)c1` here?
**A.** > 100 µM (inactive)

**Q.** Which results are given for `COc1cc(C(=O)N/N=C(\C)c2ccccn2)cc(OC)c1OC`?
**A.** IC50 (Nonstructural protein 1): 16.9 µM (active); AC50 (INS1): 1.94 µM (active)

**Q.** With `Cc1[nH]n(-c2ccccc2)c(=O)c1N=Nc1c(O)cc(S(=O)(=O)N(C)C)c2ccccc12` as the molecule, how does the IC50 (Nonstructural protein 1) read?
**A.** 19.8 µM (active)

**Q.** And the EC50 (Streptococcus)?
**A.** 6.64 µM (active)

**Q.** And the EC50 [6]?
**A.** 7.77 µM (active)

**Q.** What about the AC50 (INS1) of the same molecule?
**A.** 0.949 µM (active)

**Q.** And the EC50 [7]?
**A.** 2.12 µM (active)

**Q.** And the EC50 (BJ [8])?
**A.** 7.94 µM (active)

**Q.** And the EC50 [9]?
**A.** 2.21 µM (active)

**Q.** What about the EC50 [10] of the same molecule?
**A.** 3.37 µM (active)

**Q.** And the EC50 [11]?
**A.** 6.77 µM (active)

**Q.** What about the EC50 (BJ [12]) of the same molecule?
**A.** 10.1 µM (active)

**Q.** And the EC50 (BJ [13])?
**A.** 10.3 µM (active)

**Q.** For `Cc1cccc(/C=c2\s/c(=C\C(=O)C(C)(C)C)[nH]c2=O)c1`, which CC50 [14] is on record?
**A.** 24.7 µM (active)

**Q.** And the EC50 (Streptococcus)?
**A.** 17.2 µM (active)

**Q.** What about the EC50 [9] of the same molecule?
**A.** 10 µM (active)

**Q.** What about the EC50 (Streptokinase A) of the same molecule?
**A.** > 150 µM (not active)

**Q.** Which results are given for `COc1ccc(NS(=O)(=O)c2ccc(N/N=C/c3ccc(N4CCOCC4)cc3)c([N+](=O)[O-])c2)cc1`?
**A.** EC50 [1]: 5.68 µM (active); EC50 [2]: 6.25 µM (active)
